In one test the target is T1, CK1α (Homo sapiens, UniProt P48729+Q96SW2).
T1 construct: effects of the compounds of the present disclosure on the expression of target proteins in cells; endogenous in cells; host or cells: human PBMCs (Milecell Biotechnologies)
As to the kind of experiment: Western blot, degradation of substrate protein in hPBMCs. It is filed as cell-based.

The target in the next test is T2, IKZF3 (Homo sapiens, UniProt Q96SW2+Q9UKT9).
T2 construct: effects of the compounds of the present disclosure on the expression of target proteins in cells; endogenous in cells; host or cells: human PBMCs (Milecell Biotechnologies)
Described as above. The format is cell-based.

The target in another test is T3, IKZF2 (Homo sapiens, UniProt Q96SW2+Q9UKS7).
T3 construct: effects of the compounds of the present disclosure on the expression of target proteins in cells; endogenous in cells; host or cells: human PBMCs (Milecell Biotechnologies)
The test is described as above. It is filed as cell-based.

The target of another test is T4, IKZF1 (Homo sapiens, UniProt Q13422+Q96SW2).
T4 construct: effects of the compounds of the present disclosure on the expression of target proteins in cells; endogenous in cells; host or cells: human PBMCs (Milecell Biotechnologies)
The test is described as above. The format is cell-based.

A further test concerns the target T5, WEE1 (Homo sapiens, UniProt P30291+Q96SW2).
T5 construct: effects of the compounds of the present disclosure on the expression of target proteins in cells; endogenous in cells; host or cells: human PBMCs (Milecell Biotechnologies)
The test is described as above. It is filed as cell-based.

For test [1], the target named is T6, human Cereblon WT GST-tagged protein (Homo sapiens, UniProt Q96SW2).
T6 construct: purchased CISBIO 64BDCRBNPEH
Kind of test: CRBN-binding affinity, HTRF (CEREBLON BINDING kit). The settings on record: for inhibition at 0.5 µM: read-out: Inhibition Rate at 0.5 µM (%); for inhibition at 2 µM: read-out: Inhibition Rate at 2 µM (%).

The next test concerns GSPT1. As to the kind of experiment: Western blot, degradation of substrate protein in hPBMCs. It is filed as cell-based, Human.
Setting [2] is: Western blot, 24 hours of compound treatment, compounds tested at 50 nM and 500 nM (concentration for the table not stated).
Where [3] appears, read: 24 hours treatment, compounds at 50 nM and 500 nM (concentration behind the class not stated).

From patent EP4745135A1 (Gluetacs Therapeutics (Shanghai) Co., Ltd., priority 2023, dated 2025) come the findings set out here.

T3 sequence (Q9UKS7 whole entry): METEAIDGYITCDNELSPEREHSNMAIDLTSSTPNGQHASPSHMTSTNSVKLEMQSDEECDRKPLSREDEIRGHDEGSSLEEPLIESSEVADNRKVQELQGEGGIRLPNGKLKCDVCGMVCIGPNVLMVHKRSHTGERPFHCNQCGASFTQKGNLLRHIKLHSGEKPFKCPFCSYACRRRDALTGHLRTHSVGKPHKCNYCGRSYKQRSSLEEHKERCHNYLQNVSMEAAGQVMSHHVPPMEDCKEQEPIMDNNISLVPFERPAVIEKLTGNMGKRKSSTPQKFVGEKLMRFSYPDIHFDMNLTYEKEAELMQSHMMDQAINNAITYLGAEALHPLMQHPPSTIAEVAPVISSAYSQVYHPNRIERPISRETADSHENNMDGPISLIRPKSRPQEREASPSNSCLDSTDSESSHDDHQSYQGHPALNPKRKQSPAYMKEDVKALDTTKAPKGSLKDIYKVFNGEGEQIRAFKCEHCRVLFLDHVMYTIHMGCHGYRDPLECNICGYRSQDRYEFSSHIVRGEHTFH
T3 sequence (Q96SW2 whole entry): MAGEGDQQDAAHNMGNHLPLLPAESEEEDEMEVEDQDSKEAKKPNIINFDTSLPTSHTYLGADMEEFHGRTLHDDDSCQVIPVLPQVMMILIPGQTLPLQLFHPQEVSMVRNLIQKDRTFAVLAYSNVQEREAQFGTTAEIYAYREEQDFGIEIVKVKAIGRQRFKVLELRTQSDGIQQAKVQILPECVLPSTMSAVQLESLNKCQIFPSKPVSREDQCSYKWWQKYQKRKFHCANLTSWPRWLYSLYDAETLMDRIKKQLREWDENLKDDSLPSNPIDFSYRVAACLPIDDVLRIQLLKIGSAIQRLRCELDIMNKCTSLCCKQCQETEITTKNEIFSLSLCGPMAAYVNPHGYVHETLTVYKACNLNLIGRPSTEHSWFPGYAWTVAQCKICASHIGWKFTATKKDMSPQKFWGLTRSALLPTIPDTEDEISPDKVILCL
T3 sequence (Q16531 whole entry partner): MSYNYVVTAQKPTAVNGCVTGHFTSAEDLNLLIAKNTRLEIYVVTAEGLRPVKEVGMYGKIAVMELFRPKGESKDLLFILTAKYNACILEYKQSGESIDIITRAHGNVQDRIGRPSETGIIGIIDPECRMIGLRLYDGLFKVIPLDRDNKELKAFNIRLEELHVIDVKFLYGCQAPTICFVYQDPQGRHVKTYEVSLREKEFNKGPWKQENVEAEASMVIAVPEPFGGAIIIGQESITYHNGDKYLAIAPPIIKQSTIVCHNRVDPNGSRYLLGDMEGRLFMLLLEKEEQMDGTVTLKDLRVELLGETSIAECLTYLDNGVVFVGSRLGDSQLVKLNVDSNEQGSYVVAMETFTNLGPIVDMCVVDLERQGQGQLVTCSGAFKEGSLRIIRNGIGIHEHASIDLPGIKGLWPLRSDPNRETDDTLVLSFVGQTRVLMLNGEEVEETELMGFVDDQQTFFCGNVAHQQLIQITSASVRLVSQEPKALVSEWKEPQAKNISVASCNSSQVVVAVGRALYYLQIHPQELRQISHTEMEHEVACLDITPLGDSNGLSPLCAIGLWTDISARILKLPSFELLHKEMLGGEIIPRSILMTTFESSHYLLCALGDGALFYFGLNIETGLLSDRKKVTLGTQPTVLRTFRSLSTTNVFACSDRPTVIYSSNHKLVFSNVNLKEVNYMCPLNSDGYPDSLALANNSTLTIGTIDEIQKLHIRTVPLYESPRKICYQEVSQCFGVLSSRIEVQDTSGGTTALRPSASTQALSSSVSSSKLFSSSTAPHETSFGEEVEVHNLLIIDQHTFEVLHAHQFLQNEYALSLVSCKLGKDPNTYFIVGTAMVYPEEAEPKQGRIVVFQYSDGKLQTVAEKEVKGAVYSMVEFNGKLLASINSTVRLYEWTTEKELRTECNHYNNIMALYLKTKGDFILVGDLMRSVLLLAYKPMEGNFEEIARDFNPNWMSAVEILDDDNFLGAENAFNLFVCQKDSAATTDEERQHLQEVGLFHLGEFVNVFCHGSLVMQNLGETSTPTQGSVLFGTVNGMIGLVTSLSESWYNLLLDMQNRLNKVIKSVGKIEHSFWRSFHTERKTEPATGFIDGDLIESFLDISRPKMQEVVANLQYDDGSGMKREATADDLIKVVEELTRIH
T2 sequence (Q9UKT9 whole entry): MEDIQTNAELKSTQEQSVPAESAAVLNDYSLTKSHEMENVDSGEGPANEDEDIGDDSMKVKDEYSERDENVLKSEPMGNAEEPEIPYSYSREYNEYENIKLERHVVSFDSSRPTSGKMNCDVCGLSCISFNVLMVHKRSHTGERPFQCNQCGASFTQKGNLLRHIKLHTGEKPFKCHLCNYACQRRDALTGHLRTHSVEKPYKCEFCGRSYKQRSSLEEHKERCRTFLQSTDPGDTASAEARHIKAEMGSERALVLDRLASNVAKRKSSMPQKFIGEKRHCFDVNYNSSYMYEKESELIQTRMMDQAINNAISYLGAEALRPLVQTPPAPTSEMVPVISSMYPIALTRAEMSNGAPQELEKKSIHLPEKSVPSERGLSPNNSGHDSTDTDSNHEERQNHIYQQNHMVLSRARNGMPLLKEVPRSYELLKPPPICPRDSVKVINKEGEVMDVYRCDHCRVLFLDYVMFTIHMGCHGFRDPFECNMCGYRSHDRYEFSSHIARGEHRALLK
T2 sequence (Q96SW2 whole entry): as the sequence (Q96SW2 whole entry) above
T2 sequence (Q16531 whole entry partner): as the sequence (Q16531 whole entry partner) above
T1 sequence (P48729 whole entry): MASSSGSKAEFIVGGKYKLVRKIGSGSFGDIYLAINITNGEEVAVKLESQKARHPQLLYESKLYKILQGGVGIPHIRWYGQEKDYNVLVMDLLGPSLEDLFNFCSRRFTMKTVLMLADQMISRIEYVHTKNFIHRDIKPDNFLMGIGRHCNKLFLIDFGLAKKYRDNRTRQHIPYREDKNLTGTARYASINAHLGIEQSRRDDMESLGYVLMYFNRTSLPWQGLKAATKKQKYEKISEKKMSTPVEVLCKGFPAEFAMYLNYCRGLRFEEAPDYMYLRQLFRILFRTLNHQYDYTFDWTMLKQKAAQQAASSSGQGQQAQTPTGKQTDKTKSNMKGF
T1 sequence (Q96SW2 whole entry): as the sequence (Q96SW2 whole entry) above
T1 sequence (Q16531 whole entry partner): as the sequence (Q16531 whole entry partner) above
T4 sequence (Q13422 whole entry): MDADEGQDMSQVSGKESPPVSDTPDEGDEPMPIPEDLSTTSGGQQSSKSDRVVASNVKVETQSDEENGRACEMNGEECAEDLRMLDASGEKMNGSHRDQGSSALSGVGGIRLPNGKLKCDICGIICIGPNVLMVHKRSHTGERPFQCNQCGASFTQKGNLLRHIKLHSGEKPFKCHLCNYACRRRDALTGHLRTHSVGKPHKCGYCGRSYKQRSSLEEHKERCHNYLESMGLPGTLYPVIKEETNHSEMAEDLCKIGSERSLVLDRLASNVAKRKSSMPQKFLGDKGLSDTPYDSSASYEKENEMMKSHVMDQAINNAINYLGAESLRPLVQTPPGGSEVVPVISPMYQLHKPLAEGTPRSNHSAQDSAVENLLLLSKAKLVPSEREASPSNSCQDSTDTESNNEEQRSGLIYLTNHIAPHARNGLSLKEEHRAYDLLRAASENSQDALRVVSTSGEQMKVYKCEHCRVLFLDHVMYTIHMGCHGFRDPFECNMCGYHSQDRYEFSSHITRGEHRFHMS
T4 sequence (Q96SW2 whole entry): as the sequence (Q96SW2 whole entry) above
T4 sequence (Q16531 whole entry partner): as the sequence (Q16531 whole entry partner) above
T6 sequence (Q96SW2 whole entry): as the sequence (Q96SW2 whole entry) above
T5 sequence (P30291 whole entry): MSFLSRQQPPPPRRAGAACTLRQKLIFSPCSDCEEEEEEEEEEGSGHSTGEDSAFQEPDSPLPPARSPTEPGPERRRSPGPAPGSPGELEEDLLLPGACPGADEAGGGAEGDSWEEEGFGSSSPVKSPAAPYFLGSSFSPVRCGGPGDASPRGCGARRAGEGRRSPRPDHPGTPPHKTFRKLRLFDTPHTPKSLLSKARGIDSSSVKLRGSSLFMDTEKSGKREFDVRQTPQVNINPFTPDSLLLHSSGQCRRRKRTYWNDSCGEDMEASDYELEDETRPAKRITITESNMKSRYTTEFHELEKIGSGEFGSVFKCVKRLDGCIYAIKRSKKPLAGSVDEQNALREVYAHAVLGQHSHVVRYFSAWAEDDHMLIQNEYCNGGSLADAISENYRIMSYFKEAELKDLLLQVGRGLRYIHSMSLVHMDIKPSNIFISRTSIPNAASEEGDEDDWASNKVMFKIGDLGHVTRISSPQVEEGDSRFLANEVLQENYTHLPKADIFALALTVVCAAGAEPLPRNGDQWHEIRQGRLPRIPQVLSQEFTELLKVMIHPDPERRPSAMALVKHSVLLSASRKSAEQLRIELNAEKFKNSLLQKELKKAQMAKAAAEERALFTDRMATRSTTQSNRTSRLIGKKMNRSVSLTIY
T5 sequence (Q96SW2 whole entry): as the sequence (Q96SW2 whole entry) above
T5 sequence (Q16531 whole entry partner): as the sequence (Q16531 whole entry partner) above

Take `O=C1CCC(N2Cc3cc(CN4C[C@@H]5C[C@H]4CN5C(c4ccccc4)c4ccccc4)ccc3C2=S)C(=O)N1` (stereo partly drawn) [GT-07739, 3-(5-(((1S,4S)-5-benzhydryl-2,5-diazabicyclo[2.2.1]heptan-2-yl)methyl)-1-thioxoisoindolin-2-yl)piperidine-2,6-dione]: the “CK1α substrate protein remaining %” value on CK1α (setting [2]) is reported as “B (80%< substrate protein remaining %≤ 100%)”. Also, on IKZF3 (setting [2]), the “IKZF3 substrate protein remaining %” value was “B (80%< substrate protein remaining %≤ 100%)”. Further, the “IKZF2 substrate protein remaining %” value on IKZF2 (setting [2]) is listed as “A (0% ≤ substrate protein remaining % ≤ 80%)”. In addition, the “IKZF 1 substrate protein remaining %” value on IKZF1 (setting [2]) was “A (0% ≤ substrate protein remaining % ≤ 80%)”. Further, the “Wee1 substrate protein remaining %” value at WEE1 (setting [2]) is on record as “B (80%< substrate protein remaining %≤ 100%)”. Moreover, in test [1], the inhibition at 0.5 µM lay within 60 to 80% and the inhibition at 2 µM lay within 80 to 100%. Besides, in the test on GSPT1 (setting [2]), the “GSPT1 substrate protein remaining %” value is reported as “A (0% ≤ substrate protein remaining % ≤ 80%)”.
`O=C1CCC(N2Cc3c(CN4CCN(c5ccncc5Cl)CC4)cccc3C2=S)C(=O)N1` (stereo not shown) [GT-08731, 3-(4-((4-(3-chloropyridin-4-yl)piperazin-1-yl)methyl)-1-thioxoisoindolin-2-yl)piperidine-2,6-dione]: at CK1α (setting [2]), the “CK1α substrate protein remaining %” value is given as “B (80%< substrate protein remaining %≤ 100%)”. In addition, the “IKZF3 substrate protein remaining %” value at IKZF3 (setting [2]) is reported as “B (80%< substrate protein remaining %≤ 100%)”. Besides, the “IKZF2 substrate protein remaining %” value on IKZF2 (setting [2]) was “B (80%< substrate protein remaining %≤ 100%)”. The “IKZF 1 substrate protein remaining %” value at IKZF1 (setting [2]) is recorded as “B (80%< substrate protein remaining %≤ 100%)”. Further, the “Wee1 substrate protein remaining %” value at WEE1 (setting [2]) is on record as “A (0% ≤ substrate protein remaining % ≤ 80%)”. Moreover, in test [1], the inhibition at 0.5 µM was 60 to 80% and the inhibition at 2 µM lay within 80 to 100%. In addition, in the test with GSPT1 (setting [2]), the “GSPT1 substrate protein remaining %” value is reported as “A (0% ≤ substrate protein remaining % ≤ 80%)”.
Turning to `O=C1CCC(N2Cc3c(CN4CCN(c5cccc(F)n5)CC4)cccc3C2=S)C(=O)N1` (stereo not shown) [GT-08698, 3-(4-((4-(6-fluoropyridin-2-yl)piperazin-1-yl)methyl)-1-thioxoisoindolin-2-yl)piperidine-2,6-dione], the “CK1α substrate protein remaining %” value on CK1α (setting [2]) was “B (80%< substrate protein remaining %≤ 100%)”. Moreover, the “IKZF3 substrate protein remaining %” value on IKZF3 (setting [2]) was “B (80%< substrate protein remaining %≤ 100%)”. Besides, at IKZF2 (setting [2]), the “IKZF2 substrate protein remaining %” value is recorded as “B (80%< substrate protein remaining %≤ 100%)”. Besides, the “IKZF 1 substrate protein remaining %” value at IKZF1 (setting [2]) was “B (80%< substrate protein remaining %≤ 100%)”. Moreover, on WEE1 (setting [2]), the “Wee1 substrate protein remaining %” value was “A (0% ≤ substrate protein remaining % ≤ 80%)”. Moreover, in test [1], the inhibition at 0.5 µM lay in the range of 60 to 80% and the inhibition at 2 µM lay within 80 to 100%. Besides, the “GSPT1 substrate protein remaining %” value in the test on GSPT1 (setting [2]) is on record as “A (0% ≤ substrate protein remaining % ≤ 80%)”.
Consider `O=C1CCC(N2Cc3cc(CN4CCN(c5cccs5)CC4)ccc3C2=S)C(=O)N1` (stereo not shown) [GT-08168, 3-(5-((4-(thiophen-2-yl)piperazin-1-yl)methyl)-1-thioxoisoindolin-2-yl)piperidine-2,6-dione], for which, at CK1α (setting [3]), the “CK1α substrate protein remaining %” value is on record as “B (80%< substrate protein remaining %≤ 100%)”. For the same molecule, the “IKZF3 substrate protein remaining %” value on IKZF3 (setting [3]) was “B (80%< substrate protein remaining %≤ 100%)”. Moreover, on IKZF2 (setting [3]), the “IKZF2 substrate protein remaining %” value is recorded as “B (80%< substrate protein remaining %≤ 100%)”. In addition, the “IKZF 1 substrate protein remaining %” value on IKZF1 (setting [3]) is recorded as “B (80%< substrate protein remaining %≤ 100%)”. Further, the “Wee1 substrate protein remaining %” value on WEE1 (setting [3]) is listed as “A (0% ≤ substrate protein remaining % ≤ 80%)”. Besides, in test [1], the inhibition at 0.5 µM lay within 80 to 100% and the inhibition at 2 µM is 80 to 100%. Besides, the “GSPT1 substrate protein remaining %” value with GSPT1 (setting [3]) is “A (0% ≤ substrate protein remaining % ≤ 80%)”.
For `Cc1sc2ncnc(N3CCCN(Cc4cccc5c4CN(C4CCC(=O)NC4=O)C5=S)CC3)c2c1C` (stereo not shown) [GT-08917, 3-(4-((4-(5,6-dimethylthieno[2,3-d]pyrimidin-4-yl)-1,4-diazepan-1-yl)methyl)-1-thioxoisoindolin-2-yl)piperidine-2,6-dione], the “CK1α substrate protein remaining %” value on CK1α (setting [3]) is “B (80%< substrate protein remaining %≤ 100%)”. Also, the “IKZF3 substrate protein remaining %” value on IKZF3 (setting [3]) is “B (80%< substrate protein remaining %≤ 100%)”. Besides, the “IKZF2 substrate protein remaining %” value at IKZF2 (setting [3]) is “B (80%< substrate protein remaining %≤ 100%)”. Also, the “IKZF 1 substrate protein remaining %” value at IKZF1 (setting [3]) is recorded as “B (80%< substrate protein remaining %≤ 100%)”. Besides, the “Wee1 substrate protein remaining %” value at WEE1 (setting [3]) is listed as “A (0% ≤ substrate protein remaining % ≤ 80%)”. Moreover, in test [1], the inhibition at 0.5 µM fell in the range of 53 to 60% and the inhibition at 2 µM is 80 to 100%. In addition, the “GSPT1 substrate protein remaining %” value in the test on GSPT1 (setting [3]) is listed as “A (0% ≤ substrate protein remaining % ≤ 80%)”.
For `O=C1CCC(N2Cc3cc(CN4CCN(c5ncccn5)CC4)ccc3C2=S)C(=O)N1` (stereo not shown) [GT-09252, 3-(5-((4-(pyrimidin-2-yl)piperazin-1-yl)methyl)-1-thioxoisoindolin-2-yl)piperidine-2,6-dione], at CK1α (setting [3]), the “CK1α substrate protein remaining %” value is “B (80%< substrate protein remaining %≤ 100%)”. For the same molecule, the “IKZF3 substrate protein remaining %” value at IKZF3 (setting [3]) is “B (80%< substrate protein remaining %≤ 100%)”. The “IKZF2 substrate protein remaining %” value on IKZF2 (setting [3]) is listed as “A (0% ≤ substrate protein remaining % ≤ 80%)”. Moreover, the “IKZF 1 substrate protein remaining %” value at IKZF1 (setting [3]) is on record as “B (80%< substrate protein remaining %≤ 100%)”. At WEE1 (setting [3]), the “Wee1 substrate protein remaining %” value was “B (80%< substrate protein remaining %≤ 100%)”. In test [1], the inhibition at 0.5 µM was in the range of 60 to 80% and the inhibition at 2 µM was 80 to 100%. Also, the “GSPT1 substrate protein remaining %” value in the test on GSPT1 (setting [3]) is reported as “B (80%< substrate protein remaining %≤ 100%)”.
`O=C1CCC(N2Cc3cc(CN4CCN(CC5=C(c6ccc(F)cc6)CCCC5)CC4)ccc3C2=S)C(=O)N1` (stereo not shown) [GT-08164, 3-(5-((4-((4'-fluoro-3,4,5,6-tetrahydro-[1,1'-biphenyl]-2-yl)methyl)piperazin-1-yl)methyl)-1-thioxoisoindolin-2-yl)piperidine-2,6-dione]: the “CK1α substrate protein remaining %” value at CK1α (setting [3]) is listed as “B (80%< substrate protein remaining %≤ 100%)”. On IKZF3 (setting [3]), the “IKZF3 substrate protein remaining %” value is given as “A (0% ≤ substrate protein remaining % ≤ 80%)”. For the same molecule, the “IKZF2 substrate protein remaining %” value on IKZF2 (setting [3]) was “A (0% ≤ substrate protein remaining % ≤ 80%)”. Further, at IKZF1 (setting [3]), the “IKZF 1 substrate protein remaining %” value is reported as “A (0% ≤ substrate protein remaining % ≤ 80%)”. Moreover, the “Wee1 substrate protein remaining %” value at WEE1 (setting [3]) is recorded as “A (0% ≤ substrate protein remaining % ≤ 80%)”. For the same molecule, in test [1], the inhibition at 0.5 µM is 40 to 53% and the inhibition at 2 µM fell in the range of 80 to 100%. For the same molecule, the “GSPT1 substrate protein remaining %” value in the test on GSPT1 (setting [3]) was “A (0% ≤ substrate protein remaining % ≤ 80%)”.
For `O=C1CCC(N2Cc3c(CN4CCN(c5ccsc5)CC4)cccc3C2=S)C(=O)N1` (stereo not shown) [GT-08313, 3-(4-((4-(thiophen-3-yl)piperazin-1-yl)methyl)-1-thioxoisoindolin-2-yl)piperidine-2,6-dione], the “CK1α substrate protein remaining %” value at CK1α (setting [3]) is recorded as “B (80%< substrate protein remaining %≤ 100%)”. For the same molecule, at IKZF3 (setting [3]), the “IKZF3 substrate protein remaining %” value is recorded as “B (80%< substrate protein remaining %≤ 100%)”. The “IKZF2 substrate protein remaining %” value at IKZF2 (setting [3]) is listed as “A (0% ≤ substrate protein remaining % ≤ 80%)”. Besides, the “IKZF 1 substrate protein remaining %” value at IKZF1 (setting [3]) is on record as “B (80%< substrate protein remaining %≤ 100%)”. Also, the “Wee1 substrate protein remaining %” value on WEE1 (setting [3]) is on record as “A (0% ≤ substrate protein remaining % ≤ 80%)”. Besides, in test [1], the inhibition at 0.5 µM is 40 to 53% and the inhibition at 2 µM was 60 to 80%. The “GSPT1 substrate protein remaining %” value in the test on GSPT1 (setting [3]) is reported as “B (80%< substrate protein remaining %≤ 100%)”.
